The target of one assay is truncated CRBN (319-427) (Homo sapiens (Human), UniProt Q96SW2). The experiment in a line: Fluorescence binding assay (fluorescence quenching), affinity to E3-CEREBLON (CRBN)-ubiquitin ligase. The conditions noted are these: pH 6.5. As for the experimental part: Fluorescence quenching end point measurements were performed in black polystyrene 384-plates on Tecan Safire monochromator reader with the following settings: excitation 280 nm; excitation bandwidth 10.0 nm; emission collection 340 nm; emission bandwidth 20.0 nm; high sensitivity flash mode; integration time 40 μS; delay 0 μm. All measurements were done in duplicates; GraphPad Prism 5.03 was used for data evaluation, curve fitting, plotting and determination of IC50 values.
Chain of truncated CRBN (319-427) (Q96SW2 319-427): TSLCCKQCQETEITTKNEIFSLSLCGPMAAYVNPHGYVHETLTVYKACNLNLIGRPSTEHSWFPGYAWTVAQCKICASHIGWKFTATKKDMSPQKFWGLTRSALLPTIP
Serial dilutions of each tested ligands were mixed with truncated CRBN (319-427) to a final volume of 25 μL in the assay buffer (20 mM sodium phosphate buffer, pH 6.5, with 150 mM sodium chloride). The final concentration of CRBN in all assay will be 5-10 μM with DMSO level at 4%. A control lanes were prepared with only tested ligands without the addition of CRBN, top up with assay buffer to 25 μL. Plates were incubated for 5 minutes and analyzed using the monochromator plate reader.
IC50 is the compound concentration that causes 50% quenching of the desired activity.

In assay [1] the test system is RAMOS cells (Burkitt's lymphoma cell line). Description: Anti-proliferation assay (CellTiter-Glo). The class given is cell-based. Conditions: Homo sapiens, 72 h, 3 days. The procedure:
In cell growth experiments, cells were seeded in 96-well cell culture plates at a density of 3000 of RAMOS cells/well in 100 μL of culture medium. 100 μL of the diluted solution containing the tested compound was added to the appropriate wells of the cell plate. After addition of the tested compound, the cells were incubated at 37° C. in an atmosphere of 5% CO2 for 3 days. CellTiter-Glo (CTG) reagent from the Promega CellTiter-Glo Luminescent Cell Viability Assay kit (#G7572) was added into an OptiPlate 96 (Perkin Elmer, White, Opaque, #6005299) in the dark, incubated for at least 2 hrs, and luminescence signal was read using Tecan Safire II Multi-Mode Plate Reader. The GI50 was calculated by nonlinear regression analysis using GraphPad Prism5 software.
GI50 is the concentration for 50% of maximal inhibition of cell proliferation.
A general note: Cellular ATP, detected with luciferase, serves as a proxy for viable cell number.

Where [2] appears, read: ubiquitination moiety and linker.

As usually defined, the IC50 is the concentration that gives 50% inhibition. Low values mean greater potency in that assay, high ones weaker potency in that assay. `[N-]=[N+]=NCCOCCOCCOCCNc1cc(-c2ccc3c(c2)NC(=O)C3)ccn1` [Compound 085, 6-(2-((2-(2-(2-(2-azidoethoxy)ethoxy)ethoxy)ethyl)amino)pyridin-4-yl)indolin-2-one] registered an IC50 on truncated CRBN (319-427) (setting [2]) of 100 to 300 µM. Consider `[N-]=[N+]=NCCOCCOCCOCCNc1ccc(C(=O)Nc2ccc3c(c2)CC(=O)N3)cn1` [Compound 086, 6-((2-(2-(2-(2-azidoethoxy)ethoxy)ethoxy)ethyl)amino)-N-(2-oxoindolin-5-yl)nicotinamide], for which the IC50 at truncated CRBN (319-427) (setting [2]) fell in the range of 1 to 100 µM. The same measure, in the same setting: the value for `NCCCCCNc1cc(-c2ccc3c(c2)NC(=O)C3)ccn1` [Compound 087, 6-(2-((5-aminopentyl)amino)pyridin-4-yl)indolin-2-one] was > 300 µM. Turning to `[N-]=[N+]=NCCOCCOCCOCCNc1cc(-c2ccc3c(c2)CC(=O)N3)ccn1` [Compound 088, 5-(2-((2-(2-(2-(2-azidoethoxy)ethoxy)ethoxy)ethyl)amino)pyridin-4-yl)indolin-2-one], on truncated CRBN (319-427) (setting [2]), the IC50 lay in the range of 100 to 300 µM. Still for that read-out and setting: for `[N-]=[N+]=NCCOCCOCCOCCNc1ccc(-c2ccc3c(c2)NC(=O)C3)cn1` [Compound 089, 6-(6-((2-(2-(2-(2-azidoethoxy)ethoxy)ethoxy)ethyl)amino)pyridin-3-yl)indolin-2-one] the value was 100 to 300 µM. Molecule `Nc1ccc(OCCOCCOCCOCCNC(=O)c2cccc(-c3ccc4c(c3)NC(=O)C4)c2)cc1` [Compound 090, N-(2-(2-(2-(2-(4-aminophenoxy)ethoxy)ethoxy)ethoxy)ethyl)-3-(2-oxoindolin-6-yl)benzamide] displayed an IC50 on truncated CRBN (319-427) (setting [2]) of 100 to 300 µM.

`Nc1ccc(OCCOCCOCCOCCNC(=O)c2cccc(-c3ccc4c(c3)CC(=O)N4)c2)cc1` [Compound 091, N-(2-(2-(2-(2-(4-aminophenoxy)ethoxy)ethoxy)ethoxy)ethyl)-3-(2-oxoindolin-5-yl)benzamide]: the IC50 on truncated CRBN (319-427) (setting [2]) was 1 to 100 µM.

In turn, `[N-]=[N+]=NCCOCCOCCOCCNc1ccc(-c2ccc3c(c2)CC(=O)N3)cn1` [Compound 092, 5-(6-((2-(2-(2-(2-azidoethoxy)ethoxy)ethoxy)ethyl)amino)pyridin-3-yl)indolin-2-one] displayed an IC50 on truncated CRBN (319-427) (setting [2]) of 1 to 100 µM.

Take `Nc1ccc(OCCOCCOCCOCCNc2ccc(-c3ccc4c(c3)CC(=O)N4)cn2)cc1` [Compound 093, 5-(6-((2-(2-(2-(2-(4-aminophenoxy)ethoxy)ethoxy)ethoxy)ethyl)amino)-pyridin-3-yl)indolin-2-one]: at truncated CRBN (319-427) (setting [2]), the IC50 was 1 to 100 µM.

At truncated CRBN (319-427) (setting [2]), `[N-]=[N+]=NCCOCCOCCOCCNc1ncccc1-c1ccc2c(c1)CC(=O)N2` [Compound 094, 5-(2-((2-(2-(2-(2-azidoethoxy)ethoxy)ethoxy)ethyl)amino)pyridin-3-yl)indolin-2-one] displayed an IC50 of 100 to 300 µM. Still for that read-out and setting: the value for `[N-]=[N+]=NCCOCCOCCOCCNc1ncccc1-c1ccc2c(c1)NC(=O)C2` [Compound 095, 6-(2-((2-(2-(2-(2-azidoethoxy)ethoxy)ethoxy)ethyl)amino)pyridin-3-yl)indolin-2-one] was > 300 µM. For orientation: GI50 means the concentration at which growth is held to half of that of the control. A higher GI50 goes with less potent growth inhibition. `Cc1sc2c(c1C)C(c1ccc(Cl)cc1)=N[C@@H](CC(=O)NCCCCCNc1cc(-c3ccc4c(c3)NC(=O)C4)ccn1)c1nnc(C)n1-2` [Compound 096, (S)-2-(4-(4-chlorophenyl)-2,3,9-trimethyl-6H-thieno[3,2-f][1,2,4]triazolo[4,3-a][1,4]diazepin-6-yl)-N-(5-((4-(2-oxoindolin-6-yl)pyridin-2-yl)amino)pentyl)acetamide] yielded a GI50 in assay [1] of 0.1 to 1 µM. As for `Cc1sc2c(c1C)C(c1ccc(Cl)cc1)=N[C@@H](CC(=O)NCCOCCOCCOCCNc1cc(-c3ccc4c(c3)CC(=O)N4)ccn1)c1nnc(C)n1-2` [Compound 097, (S)-2-(4-(4-chlorophenyl)-2,3,9-trimethyl-6H-thieno[3,2-f][1,2,4]triazolo[4,3-a][1,4]diazepin-6-yl)-N-(2-(2-(2-(2-((4-(2-oxoindolin-5-yl)pyridin-2-yl)amino)ethoxy)ethoxy)ethoxy)ethyl)acetamide], in assay [1], the GI50 was > 1 µM. `Cc1sc2c(c1C)C(c1ccc(Cl)cc1)=N[C@@H](CC(=O)Nc1ccc(OCCOCCOCCOCCNc3ccc(-c4ccc5c(c4)CC(=O)N5)cn3)cc1)c1nnc(C)n1-2` [Compound 098, (S)-2-(4-(4-chlorophenyl)-2,3,9-trimethyl-6H-thieno[3,2-f][1,2,4]triazolo[4,3-a][1,4]diazepin-6-yl)-N-(4-(2-(2-(2-(2-((5-(2-oxoindolin-5-yl)pyridin-2-yl)amino)ethoxy)ethoxy)ethoxy)ethoxy)phenyl)acetamide] displayed a GI50 in assay [1] of 0.001 to 0.1 µM. In assay [1], `Cc1sc2c(c1C)C(c1ccc(Cl)cc1)=N[C@@H](CC(=O)NCCOCCOCCOCCNc1ccc(-c3ccc4c(c3)CC(=O)N4)cn1)c1nnc(C)n1-2` [Compound 099, (S)-2-(4-(4-chlorophenyl)-2,3,9-trimethyl-6H-thieno[3,2-f][1,2,4]triazolo[4,3-a][1,4]diazepin-6-yl)-N-(2-(2-(2-(2-((5-(2-oxoindolin-5-yl)pyridin-2-yl)amino)ethoxy)ethoxy)ethoxy)ethyl)acetamide] yielded a GI50 of 0.001 to 0.1 µM. Same read-out and setting: the value for `Cc1sc2c(c1C)C(c1ccc(Cl)cc1)=N[C@@H](CC(=O)NCCOCCOCCOCCNc1ccc(-c3ccc4c(c3)NC(=O)C4)cn1)c1nnc(C)n1-2` [Compound 100, (S)-2-(4-(4-chlorophenyl)-2,3,9-trimethyl-6H-thieno[3,2-f][1,2,4]triazolo[4,3-a][1,4]diazepin-6-yl)-N-(2-(2-(2-(2-((5-(2-oxoindolin-6-yl)pyridin-2-yl)amino)ethoxy)ethoxy)ethoxy)ethyl)acetamide] was 0.1 to 1 µM; that for `Cc1sc2c(c1C)C(c1ccc(Cl)cc1)=N[C@@H](CC(=O)NCCOCCOCCOCCNc1ccc(C(=O)Nc3ccc4c(c3)CC(=O)N4)cn1)c1nnc(C)n1-2` [Compound 101, (S)-6-((1-(4-(4-chlorophenyl)-2,3,9-trimethyl-6H-thieno[3,2-f][1,2,4]triazolo[4,3-a][1,4]diazepin-6-yl)-2-oxo-6,9,12-trioxa-3-azatetradecan-14-yl)amino)-N-(2-oxoindolin-5-yl)nicotinamide] was 0.1 to 1 µM; that for `Cc1sc2c(c1C)C(c1ccc(Cl)cc1)=N[C@@H](CC(=O)Nc1ccc(OCCOCCOCCOCCNC(=O)c3cccc(-c4ccc5c(c4)NC(=O)C5)c3)cc1)c1nnc(C)n1-2` [Compound 102, (S)—N-(2-(2-(2-(2-(4-(2-(4-(4-chlorophenyl)-2,3,9-trimethyl-6H-thieno[3,2-f][1,2,4]triazolo[4,3-a][1,4]diazepin-6-yl)acetamido)phenoxy)ethoxy)ethoxy)ethoxy)ethyl)-3-(2-oxoindolin-6-yl)benzamide] was 0.1 to 1 µM. Consider `Cc1sc2c(c1C)C(c1ccc(Cl)cc1)=N[C@@H](CC(=O)Nc1ccc(OCCOCCOCCOCCNC(=O)c3cccc(-c4ccc5c(c4)CC(=O)N5)c3)cc1)c1nnc(C)n1-2` [Compound 103, (S)—N-(2-(2-(2-(2-(4-(2-(4-(4-chlorophenyl)-2,3,9-trimethyl-6H-thieno[3,2-f][1,2,4]triazolo[4,3-a][1,4]diazepin-6-yl)acetamido)phenoxy)ethoxy)ethoxy)ethoxy)ethyl)-3-(2-oxoindolin-5-yl)benzamide], for which the GI50 in assay [1] was 0.1 to 1 µM. For the molecule “N-(1-acetylpiperidin-4-yl)-2-oxoindoline-6-carboxamide [Compound 026]”, the IC50 at truncated CRBN (319-427) (ubiquitination moiety) was > 300 µM.

Values taken from patent US11542274B1, “Therapeutic compounds and methods of use thereof” (AGENCY FOR SCIENCE, TECHNOLOGY AND RESEARCH (A*STAR), priority 2019, dated 2023).
